In the supplement of paper PMC11451515:

Test system: NOMO1
Assay: cell viability relative to DMSO control; higher = less cytotoxic
Conditions: 48 h
Method in brief: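 Library compounds in DMSO were pin-dosed in an 11-point threefold series (47 μM to 0.79 nM) onto leukemia cells in 1536-well plates (5 μl). Plates held 500 cells/well of NOMO1 or SEM or 1000 cells/well of P12-Ichikawa, each adapted for at least four passages in each medium. Luminescence was read with CellTiter-Glo One after 48 h at 37°C. Viability means the per-plate percentage relative to DMSO wells, using cell-free wells as background.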

[1] = HPLM + 10% dialyzed FBS, 0.000781 µM
[2] = HPLM + 10% dialyzed FBS, 0.00234 µM
[3] = HPLM + 10% dialyzed FBS, 0.00702 µM
[4] = HPLM + 10% dialyzed FBS, 0.0211 µM
[5] = HPLM + 10% dialyzed FBS, 0.0632 µM
[6] = HPLM + 10% dialyzed FBS, 0.19 µM
[7] = HPLM + 10% dialyzed FBS, 0.569 µM
[8] = HPLM + 10% dialyzed FBS, 1.71 µM
[9] = HPLM + 10% dialyzed FBS, 5.12 µM
[10] = HPLM + 10% dialyzed FBS, 15.4 µM
[11] = HPLM + 10% dialyzed FBS, 46.1 µM
[12] = RPMI 5 mM glucose + 10% FBS, 0.000781 µM
[13] = RPMI 5 mM glucose + 10% FBS, 0.00234 µM
[14] = RPMI 5 mM glucose + 10% FBS, 0.00702 µM
[15] = RPMI 5 mM glucose + 10% FBS, 0.0211 µM
[16] = RPMI 5 mM glucose + 10% FBS, 0.0632 µM
[17] = RPMI 5 mM glucose + 10% FBS, 0.19 µM
[18] = RPMI 5 mM glucose + 10% FBS, 0.569 µM
[19] = RPMI 5 mM glucose + 10% FBS, 1.71 µM
[20] = RPMI 5 mM glucose + 10% FBS, 5.12 µM
[21] = RPMI 5 mM glucose + 10% FBS, 15.4 µM
[22] = RPMI 5 mM glucose + 10% FBS, 46.1 µM
[23] = RPMI 5 mM glucose + 10% dialyzed FBS, 0.000781 µM
[24] = RPMI 5 mM glucose + 10% dialyzed FBS, 0.00234 µM
[25] = RPMI 5 mM glucose + 10% dialyzed FBS, 0.00702 µM
[26] = RPMI 5 mM glucose + 10% dialyzed FBS, 0.0211 µM
[27] = RPMI 5 mM glucose + 10% dialyzed FBS, 0.0632 µM
[28] = RPMI 5 mM glucose + 10% dialyzed FBS, 0.19 µM
[29] = RPMI 5 mM glucose + 10% dialyzed FBS, 0.569 µM
[30] = RPMI 5 mM glucose + 10% dialyzed FBS, 1.71 µM
[31] = RPMI 5 mM glucose + 10% dialyzed FBS, 5.12 µM
[32] = RPMI 5 mM glucose + 10% dialyzed FBS, 15.4 µM
[33] = RPMI 5 mM glucose + 10% dialyzed FBS, 46.1 µM

Compound | cell viability [1] | cell viability [2] | cell viability [3] | cell viability [4] | cell viability [5] | cell viability [6] | cell viability [7] | cell viability [8] | cell viability [9] | cell viability [10] | cell viability [11] | cell viability [12] | cell viability [13] | cell viability [14] | cell viability [15] | cell viability [16] | cell viability [17] | cell viability [18] | cell viability [19] | cell viability [20] | cell viability [21] | cell viability [22] | cell viability [23] | cell viability [24] | cell viability [25] | cell viability [26] | cell viability [27] | cell viability [28] | cell viability [29] | cell viability [30] | cell viability [31] | cell viability [32] | cell viability [33]
COc1cc(N2CCC(N3CCN(C)CC3)CC2)ccc1Nc1ncc(Cl)c(Nc2ccccc2[S+](=O)([O-])C(C)C)n1 | 69.2% | 80% | 98.6% | 118% | 147% | 124% | 130% | 65.1% | 55.6% | 38.7% | 17.1% | 87.2% | 73.3% | 125% | 136% | 133% | 134% | 130% | 75.9% | 64.9% | 61.5% | 49.6% | 78.3% | 66.3% | 103% | 113% | 146% | 142% | 131% | 84.3% | 61.4% | 60.4% | 59.1%
Clc1ccc(C(c2ccccc2Cl)C(Cl)Cl)cc1 (configuration not stated) | 137% | 124% | 123% | 122% | 120% | 107% | 116% | 122% | 114% | 99.8% | 101% | 105% | 115% | 126% | 118% | 137% | 134% | 120% | 119% | 110% | 98.2% | 93.2% | 106% | 115% | 129% | 106% | 111% | 109% | 97.1% | 120% | 101% | 95% | 99.4%
CCOC(=O)c1c(CSc2ccccc2)n(C)c2cc(Br)c(O)c(CN(C)C)c12 | 129% | 121% | 114% | 133% | 127% | 128% | 130% | 120% | 128% | 120% | 104% | – | – | – | – | – | – | – | – | – | – | – | 119% | 119% | 124% | 129% | 114% | 124% | 124% | 129% | 108% | 92.8% | 69.1%
c1cc2c(cc1[C@H]1OC[C@H]3[C@@H]1CO[C@@H]3c1ccc3c(c1)OCO3)OCO2 | 115% | 120% | 135% | 112% | 134% | 143% | 139% | 138% | 118% | 131% | 124% | 113% | 122% | 129% | 130% | 146% | 138% | 139% | 125% | 119% | 136% | 130% | 119% | 127% | 123% | 130% | 139% | 137% | 125% | 164% | 117% | 129% | 137%
NCCOc1cc(C(=O)Nc2cc(OCCN)c3ccccc3n2)nc(C(=O)Nc2cc(OCCN)c3ccccc3n2)c1 | 65.8% | 36.4% | 43.9% | 40.8% | 38.1% | 47.5% | 43.2% | 40.3% | 42.2% | 56.4% | 56.4% | 96% | 60.5% | 42.3% | 27% | 25.8% | 25.2% | 27.9% | 24% | 25.8% | 38.5% | 64.1% | – | – | – | – | – | – | – | – | – | – | –
CCCCN1CCC(CNC(=O)c2c3n(c4ccccc24)CCCO3)CC1 | 104% | 107% | 111% | 115% | 112% | 114% | 132% | 123% | 125% | 110% | 89.4% | 95.8% | 98.5% | 103% | 111% | 118% | 109% | 117% | 106% | 108% | 117% | 90.5% | 96.5% | 110% | 105% | 114% | 110% | 106% | 117% | 104% | 113% | 124% | 90.1%
O=C1c2ccccc2-c2n[nH]c3cccc1c23 | 109% | 131% | 103% | 111% | 123% | 120% | 92.5% | 122% | 102% | 53.6% | 28.3% | 90.6% | 105% | 110% | 113% | 102% | 127% | 113% | 107% | 117% | 53.7% | 18.2% | 101% | 107% | 98.3% | 114% | 116% | 115% | 120% | 108% | 94.2% | 94.9% | 23.9%
O=C(Nc1cccnc1)N1CCC(Cc2cccc(Oc3ccc(C(F)(F)F)cn3)c2)CC1 | 98.9% | 112% | 108% | 116% | 115% | 115% | 116% | 91.4% | 81.3% | 32.6% | 19% | 111% | 104% | 99.7% | 98.6% | 110% | 107% | 108% | 101% | 108% | 35.1% | 23% | 98.2% | 103% | 92.1% | 102% | 102% | 118% | 116% | 107% | 85.8% | 47% | 31.5%
COCCCC/C(=N\OCCN)c1ccc(C(F)(F)F)cc1 | 85.7% | 80.4% | 79.2% | 85.2% | 94.8% | 91.8% | 78.6% | 64.2% | 81.3% | 48.9% | 3.91% | 84.2% | 82% | 80.9% | 84.5% | 80.7% | 79.5% | 82% | 83% | 72.5% | 72.7% | 25.5% | 72.7% | 80.1% | 83.5% | 88.8% | 90.1% | 73.1% | 75.9% | 80% | 77.1% | 77.1% | 28.7%
O=C(NOCC1CC1)c1ccc(F)c(F)c1Nc1ccc(I)cc1Cl | 97.2% | 109% | 123% | 115% | 99.1% | 91.7% | 74.7% | 68.5% | 52% | 49.3% | 41.4% | 84.5% | 91.6% | 100% | 112% | 95.1% | 93.8% | 73.5% | 83.5% | 56.9% | 46.9% | 50% | 95.7% | 108% | 97.2% | 107% | 92.4% | 86.8% | 82.1% | 75.6% | 44.2% | 42.8% | 44.4%
CO[C@H]1C[C@@H]2CC[C@@H](C)[C@@](O)(O2)C(=O)C(=O)N2CCCC[C@H]2C(=O)O[C@H]([C@@H](C)C[C@@H]2CC[C@@H](O)[C@H](OC)C2)CC(=O)[C@H](C)/C=C(\C)[C@@H](O)[C@@H](OC)C(=O)[C@H](C)C[C@H](C)/C=C/C=C/C=C/1C | 106% | 110% | 112% | 91% | 95.3% | 112% | 103% | 104% | 81.6% | 88.7% | 81.5% | 113% | 116% | 128% | 136% | 136% | 109% | 113% | 118% | 97.3% | 111% | 103% | 112% | 116% | 121% | 106% | 108% | 117% | 111% | 115% | 128% | 105% | 99.9%
Cc1nc(-c2ccc(-c3ccc(C(=O)N4CCc5cc6c(cc54)C4(CCN(C)CC4)CO6)cc3)c(C)c2)no1 | 92.2% | 119% | 105% | 124% | 136% | 131% | 128% | 129% | 127% | 127% | 135% | 107% | 120% | 111% | 104% | 116% | 115% | 128% | 104% | 110% | 111% | 112% | 104% | 111% | 116% | 104% | 101% | 131% | 135% | 118% | 122% | 117% | 118%
O=C(CCCN1CCC(O)(c2ccc(Cl)cc2)CC1)c1ccc(F)cc1 | 115% | 119% | 108% | 111% | 114% | 133% | 135% | 129% | 126% | 110% | 91.7% | 95.3% | 106% | 101% | 109% | 128% | 117% | 110% | 119% | 102% | 110% | 82.1% | 115% | 121% | 114% | 110% | 125% | 115% | 120% | 116% | 122% | 117% | 82.5%
O=C1\C=C(OC2=C(C=CC=C12)C3=CC=CC4=C3SC5=C4C=CC=C5)\N6CCOCC6 | 123% | 123% | 129% | 128% | 135% | 121% | 135% | 133% | 114% | 132% | 112% | – | – | – | – | – | – | – | – | – | – | – | 113% | 121% | 125% | 131% | 128% | 129% | 133% | 136% | 116% | 117% | 107%
Cc1ccc(C(=O)Nc2ccc([S+](=O)([O-])O)c3cc([S+](=O)([O-])O)cc([S+](=O)([O-])O)c23)cc1NC(=O)c1cccc(NC(=O)Nc2cccc(C(=O)Nc3cc(C(=O)Nc4ccc([S+](=O)([O-])O)c5cc([S+](=O)([O-])O)cc([S+](=O)([O-])O)c45)ccc3C)c2)c1 | 95.4% | 93.6% | 96.9% | 90.1% | 91.5% | 71.9% | 69.3% | 73.6% | 40.8% | 37.1% | 38.4% | 89.4% | 83.9% | 107% | 89.7% | 90.4% | 85.9% | 84.7% | 90.4% | 75.6% | 69% | 62.2% | 91.9% | 91% | 93.1% | 101% | 76.9% | 85.8% | 87.6% | 88.9% | 76.9% | 56.3% | 52.5%
